Laboratory results: patent US12090252B2, “Method for producing retinal tissues” (RIKEN, priority 2017, dated 2024)

Tests used:
Type in all cases: cell-based
[1] = test system: cell aggregates containing a retinal tissue produced from human ES cells; test: CRX-positive and TRβ2-positive cells in retinal tissue, about day 70 of suspension culture (immunostaining, Image J); details: for CRX-positive and TRβ2-positive cells (cone photoreceptor precursor) / CRX-positive cells (photoreceptor precursor) contained in retinal tissue: about day 70 (day 71-75) from start of suspension culture, T3 60 nM from day 38, BMP4 0.15 nM or Cyclopamine-KAAD 500 nM from day 22
Description: (§1) A cell aggregate containing a retinal tissue in an initial developmental stage was prepared by the method described in “Kuwahara et al. Nat Commun 2015, 19(6), 6286-” after modification in part. That is, the aforementioned cultured ES cells were individually dispersed using TRYPLE™ Express cell dispersion solution (Invitrogen), and the individually dispersed human ES cells were suspended in 100 μL of a serum-free medium in a cell non-adhesive 96 well culture plate (SUMILON spheroid plate, SUMITOMO BAKELITE CO., LTD.) at 9×10^3 cells per well to allow rapid formation of aggregates, after which they were cultured at 37° C., 5% CO2. As the serum-free medium therefor, a serum-free medium obtained by adding 10% KSR, 450 μM 1-monothioglycerol, 1× Chemically defined lipid concentrate, 5 mg/mL BSA, 20 μM Y27632 to a 1:1 mixture of F-12 medium and IMDM medium was used. At 6 days after the start of suspension culture, BMP4 at a final concentration of 1.5 nM was added and suspension culture was continued. A half amount of the culture medium in the well was exchanged with the above-mentioned medium not supplemented with a BMP signal transduction pathway agonist every 3 or 4 days. A cell aggregate containing a retinal tissue at day 18 from the start of suspension culture was cultured in suspension in a serum-free medium (DMEM/F12 medium supplemented with 1% N2 supplement) containing 3 μM CHIR99021 and 5 μM SU5402 for 4 days, namely, up to day 22 from the start of suspension culture. Thereafter, suspension culture of the cell aggregate containing the retinal tissue was continued until it was appropriately used for analysis and the like. As the culture medium during this period, serum-containing media shown in the following to [3] were used and the cell aggregate was cultured under 5% CO2 conditions. • [1] day 22 to day 38 from the start of suspension culture; DMEM/F12 medium supplemented with 10% fetal calf serum, 1% N2 supplement, and 100 μM taurine (hereinafter to be referred to as medium A). • [2] day 38 to day 60 from the start of suspension culture; a 1:3 mixed medium of medium A, and Neurobasal medium supplemented with 10% fetal calf serum, 2% B27 supplement, […], and 100 μM taurine (hereinafter to be referred to as medium B). • [3] after day 60 or later from the start of suspension culture: medium B.
The cell aggregates containing a retinal tissue shown in Example 4 were prepared by respectively adding T3 or dorsalization signal transmitter (BMP4) as follows in the method described in Example 1. • [1]-T3 group (FIG. 4a, FIG. 4e, FIG. 4i); using the culture medium described in Example 1, culture was performed without addition up to day 75 from the start of suspension culture. • [2] +T3 group (FIG. 4b, FIG. 4f, FIG. 4j); using the culture medium described in Example 1, 60 nM T3 was further added from day 38 from the start of suspension culture to the completion of suspension culture, and cultured up to day 71 from the start of suspension culture. • [3] +T3+BMP group (FIG. 4c, FIG. 4g, FIG. 4k); using the culture medium described in Example 1, 0.15 nM BMP4 and 60 nM T3 were further added respectively from day 22, day 38 from the start of suspension culture to the completion of suspension culture, and cultured up to day 71 from the start of suspension culture. • [4] +T3+Cyclopamine-KAAD group (FIG. 4d, FIG. 4h, FIG. 4l); using the culture medium described in Example 1, 500 nM Cyclopamine-KAAD and 60 nM T3 were further added respectively from day 22, day 38 from the start of suspension culture to the completion of suspension culture, and cultured up to day 71 from the start of suspension culture.
After fixing cell aggregates containing retinal tissue cultured under the above conditions with 4% para-formaldehyde, cryosections were prepared and subjected to immunostaining using CRX, TRβ2(TRb2) antibody, or DAPI staining for staining the cell nucleus.

[2] = test system: cell aggregates containing a retinal tissue produced from human ES cells; test: CRX:Venus, RXR-γ and NRL cell proportions in retinal tissue, about day 190 of suspension culture (immunostaining, Image J); details: for CRX-positive cells (CRX:Venus-positive, photoreceptor precursor) / NRL-positive cells among CRX-positive cells (rod photoreceptor precursor) / RXR-γ-positive and NRL-negative cell among CRX-positive cells (cone photoreceptor precursor): about day 190 (day 188-193), T3 60 nM day 38-130, BMP4 0.15 nM or Cyclopamine-KAAD 500 nM day 22-100
Description: as §1
The cell aggregates containing a retinal tissue shown in Example 6 were prepared by respectively adding T3 or dorsalization signal transmitter (BMP4 or Cyclopamine-KAAD) as follows in the method described in Example 1. • [1]-T3 group (FIG. 6a, FIG. 6e, FIG. 6i, FIG. 6m); using the culture medium described in Example 1, culture was performed without addition up to day 191 from the start of suspension culture. • [2] +T3 group (FIG. 6b, FIG. 6f, FIG. 6j, FIG. 6n); using the culture medium described in Example 1, 60 nM T3 was further added from day 38 to day 130 from the start of suspension culture, and thereafter cultured up to day 192 from the start of suspension culture. From day 130 to day 192, medium described in Example 1 was used. • [3] +T3+BMP group (FIG. 6c, FIG. 6g, FIG. 6k, FIG. 6o); using the culture medium described in Example 1, 0.15 nM BMP4 was further added from day 22 to day 100 from the start of suspension culture, 60 nM T3 was added from day 38 to day 130 from the start of suspension culture, and thereafter cultured up to day 188 from the start of suspension culture. From day 130 to day 188, medium described in Example 1 was used. • [4] +T3+Cyclopamine-KAAD group (FIG. 6d, FIG. 6h, FIG. 6l, FIG. 6p); using the culture medium described in Example 1, 500 nM Cyclopamine-KAAD was further added from day 22 to day 100 from the start of suspension culture, 60 nM T3 was added from day 38 to day 130 from the start of suspension culture, and thereafter cultured up to day 193 from the start of suspension culture. From day 130 to day 193, medium described in Example 1 was used.

[3] = test system: cell aggregates containing a retinal tissue produced from human ES cells; test: PAX6/CHX10 cell proportions in retinal tissue, about day 190 of suspension culture (immunostaining, Image J); details: for PAX6-negative/CHX10-strongly positive cells (bipolar cells) / PAX6-strongly positive/CHX10-negative cells (any of ganglion cell, amacrine cell, horizontal cell): about day 190 (day 188-191), T3 60 nM day 38-130, BMP4 0.15 nM or Cyclopamine-KAAD 500 nM day 22-100; for PAX6-strongly positive/CHX10-negative cell and PAX6-negative/CHX10-strongly positive cell, observation with fluorescent microscope: day 188-191, groups added with T3 compared to groups with no addition
Description: as §1
The cell aggregates containing a retinal tissue shown in Example 5 were prepared by respectively adding T3 or dorsalization signal transmitter as follows in the method described in Example 1. • [1]-T3 group (FIG. 5a, FIG. 5g, FIG. 5m); using the culture medium described in Example 1, culture was performed without addition up to day 191 from the start of suspension culture. • [2] +T3 group (FIG. 5b, FIG. 5h, FIG. 5n); using the culture medium described in Example 1, 60 nM T3 was further added from day 38 to day 130 from the start of suspension culture, and thereafter cultured up to day 188 from the start of suspension culture. From day 130 to day 188, medium B described in Example 1 was used. • [3] +BMP group (FIG. 5c, FIG. 5i, FIG. 5o); using the culture medium described in Example 1, 0.15 nM BMP4 was further added from day 22 to day 100 from the start of suspension culture, and thereafter cultured up to day 191 from the start of suspension culture. From day 100 to day 191, medium described in Example 1 was used. • [4] +T3+BMP group (FIG. 5d, FIG. 5j, FIG. 5p); using the culture medium described in Example 1, 0.15 nM BMP4 was further added from day 22 to day 100 from the start of suspension culture, 60 nM T3 was added from day 38 to day 130 from the start of suspension culture, and thereafter cultured up to day 188 from the start of suspension culture.

[4] = test system: cell aggregates containing a retinal tissue produced from human ES cells; test: CRX:Venus green fluorescence of cell aggregates under a fluorescent microscope, day 69-74; details: T3 vs −T3 group
Description: A cell aggregate containing a retinal tissue in an initial developmental stage was prepared by the method described in “Kuwahara et al. Nat Commun 2015, 19(6), 6286-” after modification in part. That is, the aforementioned cultured ES cells were individually dispersed using TRYPLE™ Express cell dispersion solution (Invitrogen), and the individually dispersed human ES cells were suspended in 100 μL of a serum-free medium in a cell non-adhesive 96 well culture plate (SUMILON spheroid plate, SUMITOMO BAKELITE CO., LTD.) at 9×10^3 cells per well to allow rapid formation of aggregates, after which they were cultured at 37° C., 5% CO2. As the serum-free medium therefor, a serum-free medium obtained by adding 10% KSR, 450 μM 1-monothioglycerol, 1× Chemically defined lipid concentrate, 5 mg/mL BSA, 20 μM Y27632 to a 1:1 mixture of F-12 medium and IMDM medium was used. At 6 days after the start of suspension culture, BMP4 at a final concentration of 1.5 nM was added and suspension culture was continued. A half amount of the culture medium in the well was exchanged with the above-mentioned medium not supplemented with a BMP signal transduction pathway agonist every 3 or 4 days. […]

[5] = test system: cell aggregates containing a retinal tissue produced from human ES cells; test: CRX-positive cells in neural retinal tissue, day 100-105 of suspension culture (immunostaining, Image J)
Description: A cell aggregate containing a retinal tissue in an initial developmental stage was prepared by the method described in “Kuwahara et al. Nat Commun 2015, 19(6), 6286-” after modification in part. That is, the aforementioned cultured ES cells were individually dispersed using TRYPLE™ Express cell dispersion solution (Invitrogen), and the individually dispersed human ES cells were suspended in 100 μL of a serum-free medium in a cell non-adhesive 96 well culture plate (SUMILON spheroid plate, SUMITOMO BAKELITE CO., LTD.) at 9×10^3 cells per well to allow rapid formation of aggregates, after which they were cultured at 37° C., 5% CO2. As the serum-free medium therefor, a serum-free medium obtained by adding 10% KSR, 450 μM 1-monothioglycerol, 1× Chemically defined lipid concentrate, 5 mg/mL BSA, 20 μM Y27632 to a 1:1 mixture of F-12 medium and IMDM medium was used. At 6 days after the start of suspension culture, BMP4 at a final concentration of 1.5 nM was added and suspension culture was continued. A half amount of the culture medium in the well was exchanged with the above-mentioned medium not supplemented with a BMP signal transduction pathway agonist every 3 or 4 days. A cell aggregate containing a retinal tissue at day 18 from the start of suspension culture was cultured in suspension in a serum-free medium (DMEM/F12 medium supplemented with 1% N2 supplement) containing 3 μM CHIR99021 and 5 μM SU5402 for 4 days, namely, up to day 22 from the start of suspension culture. Thereafter, suspension culture of the cell aggregate containing the retinal tissue was continued until it was appropriately used for analysis and the like. […]

[6] = day 71-75, T3 vs −T3 group, combinations vs +T3 group
[7] = day 188-193, compared to −T3 group

Compound	CRX-positive and TRβ2-positive cells (cone photoreceptor precursor) [1] [%]	CRX-positive cells (photoreceptor precursor) contained in retinal tissue [1] [%]	CRX-positive cells (CRX:Venus-positive, photoreceptor precursor) [2] [%]	NRL-positive cells among CRX-positive cells (rod photoreceptor precursor) [2] [%]	RXR-γ-positive and NRL-negative cell among CRX-positive cells (cone photoreceptor precursor) [2] [%]	PAX6-negative/CHX10-strongly positive cells (bipolar cells) [3] [%]	PAX6-strongly positive/CHX10-negative cells (any of ganglion cell, amacrine cell, horizontal cell) [3] [%]	PAX6-strongly positive/CHX10-negative cell and PAX6-negative/CHX10-strongly positive cell, observation with fluorescent microscope [3]	CRX-positive cell (photoreceptor precursor), observation with fluorescence microscope [1, 6]	cone photoreceptor precursors (CRX-positive cell that expresses TRβ2), observation [1, 6]	ectopic CRX-positive cell in region on the basement membrane side from neuroblastic layer ([1]; day 71-75, observation with fluorescence microscope)	RXR-γ-positive and NRL-negative cone photoreceptor precursor among CRX:Venus-positive photoreceptor precursors, observation [2, 7]	proportion of photoreceptor precursor among the cells contained in the retinal tissue, observation [2, 7]	green fluorescence shown by knocked-in CRX:Venus ([4]; day 69-74, T3 60 nM from day 38, BMP4 0.15 nM or Cyclopamine-KAAD 500 nM from day 22, combinations vs +T3 group)	green fluorescence shown by knocked-in CRX:Venus, in the presence of 9-cis retinoic acid ([4]; day 74, 100 nM 9-cis retinoic acid and 60 nM T3 from day 38, BMP4 0.45 nM from day 22, combination vs +T3 group)	proportion of CRX-positive cells contained in the neural retinal tissue ([5]; T3 60 nM from day 38, BMP4 0.15 nM or Cyclopamine-KAAD 500 nM day 22-100) [%]	CRX-positive cell (photoreceptor precursor), observation ([5]; compared to −T3 group)	ectopic photoreceptor precursors in neuroblastic layer and ganglion cell layer ([5]; observation)
CC1=C2C[C@H]3[C@@H](CC=C4CC(=O)CC[C@@]43C)[C@@H]2CC[C@]12O[C@@H]1C[C@H](C)CN(CCNC(=O)CCCCCNC(=O)CCc3ccccc3)[C@H]1[C@H]2C [Cyclopamine-KAAD]	8.1	14.1	41.7	11.5	30.2	8.65	24.50	many	–	–	–	–	–	–	–	–	–	–
BMP4: BMP protein, BMP signal transduction pathway agonist used as dorsalization signal transmitter	10.8	17.0	37.7	6.1	31.3	15.49	24.60	many	–	–	–	–	–	–	–	–	–	–
N[C@@H](Cc1cc(I)c(Oc2ccc(O)c(I)c2)c(I)c1)C(=O)O [T3, triiodothyronine]	11.3	22.8	53.4	9.4	44.1	4.29	13.83	markedly decreased	found more	found in a greater number	found at the same level as in the apical surface	increased	markedly high	observed more	observed more	30.0	remarkably increased	ectopic photoreceptor precursors are contained
